{"source": "ChEMBL document CHEMBL3879886", "about": "“Substantially pure 2-{[2-(2-Methylamino-Pyrimidin-4-YL)-1H-Indole-5-Carbonyl]-Amino}-3-Phenylpyridin-2-YL-Amino)-Propionic acid as an IkB kinase inhibitor” (2007)", "key": {"Mus musculus": {"tested_on": "Mus musculus", "assay": "In vivo inhibition of IKK2 in Balb/c mouse assessed as decrease in IL-1beta-induced NF-kappaB activation administered intranasally 0.5 to 1 hr prior to IL-1beta challenge measured after 1 to 24 hrs by luciferase reporter gene assay", "assay_type": "functional"}, "[1]": {"assay": "Drug uptake in Hartley guinea pig lung at 0.01 to 0.3 mg/kg administered via intra-tracheal instillation measured after 1 hr", "assay_type": "ADME, organism-based, Cavia porcellus", "details": "in vivo, inhaled_or_intranasal; call rule not given here"}, "[2]": {"assay": "Drug uptake in Hartley guinea pig plasma at 0.01 to 0.3 mg/kg administered via intra-tracheal instillation measured after 1 hr", "assay_type": "ADME, organism-based, Cavia porcellus", "details": "in vivo, inhaled_or_intranasal"}, "[3]": {"assay": "Drug uptake in po dosed Hartley guinea pig plasma", "assay_type": "ADME, organism-based, Cavia porcellus", "details": "in vivo"}, "[4]": {"assay": "Prodrug conversion in Hartley guinea pig lung assessed as formation of 2-{[2-(2-Methylamino-pyrimidin-4-yl)-lH-indole-5-carbo- nyl]-amino}-3-(phenyl-pyridin-2-yl-amino)-propionic acid at 0.01 to 0.3 administered via intra-tracheal instillation measured after 1 hr", "assay_type": "ADME, Cavia porcellus", "details": "in vivo, inhaled_or_intranasal"}, "[5]": {"assay": "Drug uptake in Hartley guinea pig lung at 0.3 mg/kg administered via intra-tracheal instillation measured after 1 hr", "assay_type": "ADME, organism-based, Cavia porcellus", "details": "in vivo, inhaled_or_intranasal"}}, "data": [{"smiles": "CNc1nccc(-c2cc3cc(C(=O)N[C@@H](CN(c4ccccc4)c4ccccn4)C(=O)O)ccc3[nH]2)n1", "values": [{"measurement": "inhibition", "setting": "Mus musculus", "value": "Dose-dependent effect"}, {"measurement": "Drug uptake", "setting": "[1]", "value": "Active"}, {"measurement": "Drug uptake", "setting": "[2]", "value": "Active"}, {"measurement": "Drug uptake", "setting": "[3]", "value": "Active"}]}, {"smiles": "CNc1nccc(-c2cc3cc(C(=O)N[C@@H](CN(c4ccccc4)c4ccccn4)C(=O)NOC)ccc3[nH]2)n1", "values": [{"measurement": "inhibition", "setting": "Mus musculus", "value": "Dose-dependent effect"}, {"measurement": "Drug metabolism", "setting": "[4]", "value": "Metabolite_Detected"}, {"measurement": "Drug uptake", "setting": "[2]", "value": "Active"}, {"measurement": "Drug uptake", "setting": "[3]", "value": "Active"}, {"measurement": "Drug uptake", "setting": "[5]", "value": "Active"}]}]}
